# Laboratory results from ChEMBL document CHEMBL1156824, “Physicochemical space for optimum oral bioavailability: contribution of human intestinal absorption and first-pass elimination” (J Med Chem, 2010).
# Species: Homo sapiens
# Test: Hepatic clearance in human
# Conditions: in vivo
row,SMILES,CL [mL/min/kg]
1,CN(CCOc1ccc(CC2SC(=O)NC2=O)cc1)c1ccccn1 (stereo not given) [ROSIGLITAZONE],0.7
2,CO[C@H]1/C=C/O[C@@]2(C)Oc3c(C)c(O)c4c(O)c(c(/C=N/N5CCN(C)CC5)c(O)c4c3C2=O)NC(=O)/C(C)=C\C=C\[C@H](C)[C@H](O)[C@@H](C)[C@@H](O)[C@@H](C)[C@H](OC(C)=O)[C@@H]1C [RIFAMPIN],1.3
3,CC1(C)S[C@@H]2[C@H](NC(=O)[C@H](N)c3ccc(O)cc3)C(=O)N2[C@H]1C(=O)O [AMOXICILLIN],1.4
4,CC[C@]1(O)C[C@@H]2CN(CCc3c([nH]c4ccccc34)[C@@](C(=O)OC)(c3cc4c(cc3OC)N(C)[C@H]3[C@@](O)(C(=O)OC)[C@H](OC(C)=O)[C@]5(CC)C=CCN6CC[C@]43[C@@H]65)C2)C1 [VINBLASTINE],0.5
5,CC(C)NCC(O)COc1cccc2ccccc12 (stereo not given) [PROPRANOLOL],10.8
6,O=C1Nc2ccc(Cl)cc2C(c2ccccc2Cl)=NC1O (stereo not given) [LORAZEPAM],1
7,C=CC[C@@H]1/C=C(\C)C[C@H](C)C[C@H](OC)[C@H]2O[C@@](O)(C(=O)C(=O)N3CCCC[C@H]3C(=O)O[C@H](/C(C)=C/[C@@H]3CC[C@@H](O)[C@H](OC)C3)[C@H](C)[C@@H](O)CC1=O)[C@H](C)C[C@@H]2OC [TACROLIMUS ANHYDROUS],0.7
8,CC[C@H](C)C(=O)O[C@H]1C[C@H](O)C=C2C=C[C@H](C)[C@H](CC[C@@H](O)C[C@@H](O)CC(=O)O)[C@H]21 [PRAVASTATIN],7.7
9,CCCCc1ncc(/C=C(\Cc2cccs2)C(=O)O)n1Cc1ccc(C(=O)O)cc1 [EPROSARTAN],1.2
10,CC1COc2c(N3CCN(C)CC3)c(F)cc3c(=O)c(C(=O)O)cn1c23 (stereo not given) [OFLOXACIN],0.8
11,C=CCc1ccccc1OCC(O)CNC(C)C (stereo not given) [ALPRENOLOL],14.4
12,CCC(CC)O[C@@H]1C=C(C(=O)O)C[C@H](N)[C@H]1NC(C)=O [OSELTAMIVIR CARBOXYLATE],0.3
13,c1ccc(C2(c3ccccc3)CC2C2=NCCN2)cc1 (stereo not given) [CIFENLINE],4.4
14,CN1C2CCCC1CC(NC(=O)c1nn(C)c3ccccc13)C2 (stereo not given) [GRANISETRON],8.1
15,C[C@H](/C=C/[C@H](C)C(C)(C)O)[C@H]1CC[C@H]2/C(=C/C=C3C[C@@H](O)C[C@H](O)C3)CCC[C@]12C [PARICALCITOL],0.9
16,CCCC1O[C@@H]2C[C@H]3[C@@H]4CCC5=CC(=O)C=C[C@]5(C)[C@H]4[C@@H](O)C[C@]3(C)[C@]2(C(=O)CO)O1 (stereo not given in full) [BUDESONIDE],19
17,CN[C@@H]1CCc2[nH]c3ccc(C(N)=O)cc3c2C1 [FROVATRIPTAN],1.5
18,CC1(C)S[C@@H]2[C@H](NC(=O)[C@H](N)c3ccccc3)C(=O)N2[C@H]1C(=O)O [AMPICILLIN],1.6
19,O=P(O)(O)C(O)(Cc1cccnc1)P(=O)(O)O [RISEDRONIC ACID],0.2
20,CN(C)C(=O)Oc1ccc[n+](C)c1 [PYRIDOSTIGMINE],2.4
21,CC(C)(C)NCC(O)c1cc(O)cc(O)c1 (stereo not given) [TERBUTALINE],1.2
22,CC(C)(C)NC(=O)[C@H]1CC[C@H]2[C@@H]3CC=C4C=C(C(=O)O)CC[C@]4(C)[C@H]3CC[C@]12C [EPRISTERIDE],0.3
23,CC1(C)S[C@@H]2[C@H](NC(=O)COc3ccccc3)C(=O)N2[C@H]1C(=O)O [PENICILLIN V],5.1
24,COc1nc(C)nc(Cl)c1N=C1NCCN1 [MOXONIDINE],3.5
25,CCOc1ccc(/C=C2\NCCc3cc(OCC)c(OCC)cc32)cc1OCC [DROTAVERINE],3.5

row,SMILES,CL [mL/min/kg]
1,CC(=O)NC[C@H]1CN(c2ccc(N3CCOCC3)c(F)c2)C(=O)O1 [LINEZOLID],1.2
2,CN(C)CCc1c[nH]c2ccc(C[C@H]3COC(=O)N3)cc12 [ZOLMITRIPTAN],4.5
3,C[C@@H]1O[C@@H]1P(=O)(O)O [FOSFOMYCIN],0.02
4,COc1ccc([C@@H]2Sc3ccccc3N(CCN(C)C)C(=O)[C@@H]2OC(C)=O)cc1 [DILTIAZEM],3.8
5,CC1=C(C(=O)O)N2C(=O)[C@@H](NC(=O)[C@H](N)c3ccc(O)cc3)[C@H]2SC1 [CEFADROXIL],0.2
6,C[C@](N)(Cc1ccc(O)c(O)c1)C(=O)O [METHYLDOPA],1.4
7,CO/N=C(\C(=O)N[C@@H]1C(=O)N2C(C(=O)O)=C(COC(N)=O)CS[C@H]12)c1ccco1 [CEFUROXIME],0.1
8,CC(C)NCC(O)COc1ccc(COCCOC(C)C)cc1 (stereo not given) [BISOPROLOL],1.4
9,CNS(=O)(=O)CCc1ccc2[nH]cc(C3CCN(C)CC3)c2c1,3.5
10,COCCOC(=O)C1=C(C)NC(C)=C(C(=O)OC(C)C)C1c1cccc([N+](=O)[O-])c1 (stereo not given) [NIMODIPINE],15
11,N=C(N)c1ccc(CNC(=O)[C@@H]2CCN2C(=O)[C@H](NCC(=O)O)C2CCCCC2)cc1,0.3
12,COc1cc(OC)c(C(=O)CCCN2CCCC2)c(OC)c1 [BUFLOMEDIL],4.3
13,COc1ccccc1OCCNCC(O)COc1cccc2[nH]c3ccccc3c12 (stereo not given) [CARVEDILOL],7.7
14,CN(C)[C@@H]1C(O)=C(C(N)=O)C(=O)[C@@]2(O)C(O)=C3C(=O)c4c(O)cccc4[C@@](C)(O)[C@H]3C[C@@H]12 [TETRACYCLINE],0.6
15,Nc1nc2c(c(=O)[nH]1)N(C=O)C(CNc1ccc(C(=O)N[C@@H](CCC(=O)O)C(=O)O)cc1)CN2 (stereo not given in full) [LEUCOVORIN],4.5
16,COc1c(N2CCNC(C)C2)c(F)cc2c(=O)c(C(=O)O)cn(C3CC3)c12 (stereo not given) [GATIFLOXACIN],0.5
17,CCN(CC)CCNC(=O)c1cc(Cl)c(N)cc1OC [METOCLOPRAMIDE],4.6
18,Nc1ccn(C[C@@H](CO)OCP(=O)(O)O)c(=O)n1.O.O [CIDOFOVIR],0.3
19,CN(Cc1cnc2nc(N)nc(N)c2n1)c1ccc(C(=O)N[C@@H](CCC(=O)O)C(=O)O)cc1 [METHOTREXATE],0.4
20,CC1=C(C(=O)O)N2C(=O)[C@@H](NC(=O)[C@H](N)C3=CCC=CC3)[C@H]2SC1 [CEPHRADINE],0.2
21,C[C@H]1O[C@@H](n2cc(F)c(=O)[nH]c2=O)[C@H](O)[C@@H]1O [DOXIFLURIDINE],6.7
22,CCC(C)n1ncn(-c2ccc(N3CCN(c4ccc(OCC5COC(Cn6cncn6)(c6ccc(Cl)cc6Cl)O5)cc4)CC3)cc2)c1=O (stereo not given) [ITRACONAZOLE],5.1
23,CC(C)(C)NC[C@H](O)COc1nsnc1N1CCOCC1 [TIMOLOL],7.1
24,N[C@@H](CC(=O)N1CCn2c(nnc2C(F)(F)F)C1)Cc1cc(F)c(F)cc1F [SITAGLIPTIN],1.3
25,Cc1ccc(O)c([C@H](CCN(C(C)C)C(C)C)c2ccccc2)c1 [TOLTERODINE],8.4

row,SMILES,CL [mL/min/kg]
1,NC1CCN(c2c(F)cc3c(=O)c(C(=O)O)cn(C4CC4)c3c2Cl)C1 (stereo not given) [CLINAFLOXACIN],1.5
2,CC(C)(C)NCC(O)COc1ccc(NC(=O)NC2CCCCC2)cc1 (stereo not given) [TALINOLOL],2.3
3,CN[C@H](CC(C)C)C(=O)N[C@H]1C(=O)N[C@@H](CC(N)=O)C(=O)N[C@H]2C(=O)N[C@H]3C(=O)N[C@H](C(=O)N[C@H](C(=O)O)c4cc(O)cc(O)c4-c4cc3ccc4O)[C@H](O)c3ccc(c(Cl)c3)Oc3cc2cc(c3O[C@@H]2O[C@H](CO)[C@@H](O)[C@H](O)[C@H]2O[C@H]2C[C@](C)(N)[C@H](O)[C@H](C)O2)Oc2ccc(cc2Cl)[C@H]1O [VANCOMYCIN],0.3
4,Cc1onc(-c2c(Cl)cccc2Cl)c1C(=O)N[C@@H]1C(=O)N2[C@@H]1SC(C)(C)[C@@H]2C(=O)O [DICLOXACILLIN],0.8
5,O=C(O)[C@H]1/C(=C/CO)O[C@@H]2CC(=O)N21 [CLAVULANIC ACID],1.8
6,CC(C)[C@H]1CC[C@H](C(=O)N[C@H](Cc2ccccc2)C(=O)O)CC1 [NATEGLINIDE],1.7
7,Cc1[nH]c(=O)c(C#N)cc1-c1ccncc1 [MILRINONE],1.2
8,C#CCN(C)[C@H](C)Cc1ccccc1 [SELEGILINE],19.8
9,CCNCC(O)c1cccc(O)c1 (stereo not given) [ETILEFRINE],10
10,COCCCOc1ccnc(C[S+]([O-])c2nc3ccccc3[nH]2)c1C (stereo not given) [RABEPRAZOLE],4
11,Cc1ccccc1N1C(=O)c2cc(S(N)(=O)=O)c(Cl)cc2NC1C (stereo not given) [METOLAZONE],0.3
12,CCN(CC)CCNC(=O)c1ccc(NS(C)(=O)=O)cc1 [SEMATILIDE],0.2
13,CCN(CC)CCCC(C)Nc1ccnc2cc(Cl)ccc12 (stereo not given) [CHLOROQUINE],1.8
14,Cc1cccc(C)c1NC(=O)C(C)N (stereo not given) [TOCAINIDE],1.4
15,CN1CCN(C(=O)OC2c3nccnc3C(=O)N2c2ccc(Cl)cn2)CC1 (stereo not given) [ZOPICLONE],3.2
16,N=C(N)NC(=O)Cc1c(Cl)cccc1Cl [GUANFACINE],2.9
17,O=c1[nH]cnc2c1ncn2[C@H]1CC[C@@H](CO)O1 [DIDANOSINE],4.2
18,CC(=O)Nc1ccc(OCC(O)CNC(C)C)cc1 (stereo not given) [PRACTOLOL],0.3
19,CN1C(=O)C(O)N=C(c2ccccc2Cl)c2cc(Cl)ccc21 (stereo not given) [LORMETAZEPAM],4
20,N[C@@H]1CN(c2c(F)cc3c(=O)c(C(=O)O)cn([C@@H]4C[C@@H]4F)c3c2Cl)CC12CC2 [SITAFLOXACIN ANHYDROUS],0.9
21,Nc1ncnc2c1ncn2CCOCP(=O)(O)O [ADEFOVIR],0.4
22,CCN(CC)C(=O)/C(C#N)=C/c1cc(O)c(O)c([N+](=O)[O-])c1 [ENTACAPONE],5.3
23,C[C@]12CC[C@@H]3c4ccc(OC(=O)N(CCCl)CCCl)cc4CC[C@H]3[C@@H]1CC[C@@H]2OP(=O)(O)O [ESTRAMUSTINE PHOSPHATE],0.9
24,COc1ccc(Cc2nccc3cc(OC)c(OC)cc23)cc1OC [PAPAVERINE],11
25,COC(=O)C1=C(C)NC(C)=C(C(=O)OCC(C)C)C1c1ccccc1[N+](=O)[O-] (stereo not given) [NISOLDIPINE],15
